One assay addresses Adenosine receptor A2a (Homo sapiens, UniProt P29274).
Assay [1] addresses T1, Alpha-2C adrenergic receptor (Homo sapiens, UniProt P18825).
T1 sequence (P18825 whole entry): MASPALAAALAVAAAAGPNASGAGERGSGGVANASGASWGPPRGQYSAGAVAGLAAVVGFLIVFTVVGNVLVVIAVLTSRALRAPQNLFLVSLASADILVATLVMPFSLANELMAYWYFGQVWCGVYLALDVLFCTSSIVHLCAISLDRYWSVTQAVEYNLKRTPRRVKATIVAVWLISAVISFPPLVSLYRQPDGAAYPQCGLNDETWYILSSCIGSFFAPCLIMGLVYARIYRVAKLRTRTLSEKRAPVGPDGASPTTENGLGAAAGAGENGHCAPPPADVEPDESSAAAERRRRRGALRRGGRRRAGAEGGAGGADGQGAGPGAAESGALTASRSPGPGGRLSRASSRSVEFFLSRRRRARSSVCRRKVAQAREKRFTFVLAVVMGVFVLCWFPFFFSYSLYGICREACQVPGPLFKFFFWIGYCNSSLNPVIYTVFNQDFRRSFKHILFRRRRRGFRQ
Type of assay: functional.

For assay [2], the target named is T2, Muscarinic acetylcholine receptor M1 (Homo sapiens, UniProt P11229).
T2 sequence (P11229 whole entry): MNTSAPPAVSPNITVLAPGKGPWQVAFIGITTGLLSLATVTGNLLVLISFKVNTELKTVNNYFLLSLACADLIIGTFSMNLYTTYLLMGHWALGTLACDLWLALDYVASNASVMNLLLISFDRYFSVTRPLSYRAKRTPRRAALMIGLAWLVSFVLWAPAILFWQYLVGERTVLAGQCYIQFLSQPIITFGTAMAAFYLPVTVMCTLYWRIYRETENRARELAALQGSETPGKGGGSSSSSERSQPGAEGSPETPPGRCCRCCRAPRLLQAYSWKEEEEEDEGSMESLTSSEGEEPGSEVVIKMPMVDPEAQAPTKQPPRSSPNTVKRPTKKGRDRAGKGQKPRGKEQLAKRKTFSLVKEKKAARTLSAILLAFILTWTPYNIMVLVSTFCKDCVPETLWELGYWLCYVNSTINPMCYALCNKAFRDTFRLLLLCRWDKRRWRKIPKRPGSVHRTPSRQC
It counts as functional.

The target of assay [3] is T3, Cannabinoid receptor 1 (Homo sapiens, UniProt P21554).
T3 sequence (P21554 whole entry): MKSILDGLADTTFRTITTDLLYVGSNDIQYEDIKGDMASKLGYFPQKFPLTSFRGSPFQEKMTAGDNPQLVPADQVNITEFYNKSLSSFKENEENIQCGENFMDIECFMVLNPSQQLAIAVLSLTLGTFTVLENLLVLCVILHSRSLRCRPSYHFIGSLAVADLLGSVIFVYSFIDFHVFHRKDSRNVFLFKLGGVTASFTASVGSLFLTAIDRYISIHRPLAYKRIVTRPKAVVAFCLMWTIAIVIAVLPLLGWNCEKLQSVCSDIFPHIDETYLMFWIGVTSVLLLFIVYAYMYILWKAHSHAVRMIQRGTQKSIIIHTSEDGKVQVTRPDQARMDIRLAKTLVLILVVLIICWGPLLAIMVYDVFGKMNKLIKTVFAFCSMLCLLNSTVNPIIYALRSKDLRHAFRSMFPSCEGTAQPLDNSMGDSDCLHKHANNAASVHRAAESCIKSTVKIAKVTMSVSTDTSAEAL
The target in the next assay is T4, Endothelin-1 receptor (Homo sapiens, UniProt P25101).
T4 sequence (P25101 whole entry): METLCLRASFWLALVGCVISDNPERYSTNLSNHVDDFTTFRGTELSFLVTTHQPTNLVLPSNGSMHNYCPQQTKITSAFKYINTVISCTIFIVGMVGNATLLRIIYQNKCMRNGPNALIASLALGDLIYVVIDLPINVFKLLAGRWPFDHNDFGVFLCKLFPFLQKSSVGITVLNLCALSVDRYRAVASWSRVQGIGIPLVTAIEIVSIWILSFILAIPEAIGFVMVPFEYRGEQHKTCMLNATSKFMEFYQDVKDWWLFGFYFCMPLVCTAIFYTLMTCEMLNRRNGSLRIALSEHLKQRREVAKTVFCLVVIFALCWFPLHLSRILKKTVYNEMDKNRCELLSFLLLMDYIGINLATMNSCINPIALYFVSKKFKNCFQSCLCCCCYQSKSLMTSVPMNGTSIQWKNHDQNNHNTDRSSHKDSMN

Assay [4] concerns the target Growth hormone secretagogue receptor type 1 (Homo sapiens, UniProt Q92847).
The target in assay [5] is T5, 5-hydroxytryptamine receptor 1A (Homo sapiens, UniProt P08908).
T5 sequence (P08908 whole entry): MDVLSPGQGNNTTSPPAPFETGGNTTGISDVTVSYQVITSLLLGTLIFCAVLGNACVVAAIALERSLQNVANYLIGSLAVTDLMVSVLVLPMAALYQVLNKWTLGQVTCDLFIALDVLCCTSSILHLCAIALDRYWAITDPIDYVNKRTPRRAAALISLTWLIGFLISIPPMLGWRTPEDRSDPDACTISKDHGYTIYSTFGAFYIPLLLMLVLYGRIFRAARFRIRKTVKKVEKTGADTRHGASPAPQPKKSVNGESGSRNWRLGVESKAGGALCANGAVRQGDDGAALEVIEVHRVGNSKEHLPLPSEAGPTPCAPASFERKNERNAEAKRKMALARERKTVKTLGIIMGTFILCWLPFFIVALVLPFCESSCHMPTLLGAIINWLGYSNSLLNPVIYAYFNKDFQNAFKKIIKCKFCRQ
Type of assay: functional, cell-based.

Assay [6] concerns the target 5-hydroxytryptamine receptor 2B (Homo sapiens, UniProt P41595). Type of assay: functional, cell-based.
For assay [7], the target named is Voltage-gated inwardly rectifying potassium channel KCNH2 (Homo sapiens, UniProt Q12809). Type of assay: functional. The conditions noted are these: read-out: AC50.
Chain of Voltage-gated inwardly rectifying potassium channel KCNH2 (Q12809 whole entry): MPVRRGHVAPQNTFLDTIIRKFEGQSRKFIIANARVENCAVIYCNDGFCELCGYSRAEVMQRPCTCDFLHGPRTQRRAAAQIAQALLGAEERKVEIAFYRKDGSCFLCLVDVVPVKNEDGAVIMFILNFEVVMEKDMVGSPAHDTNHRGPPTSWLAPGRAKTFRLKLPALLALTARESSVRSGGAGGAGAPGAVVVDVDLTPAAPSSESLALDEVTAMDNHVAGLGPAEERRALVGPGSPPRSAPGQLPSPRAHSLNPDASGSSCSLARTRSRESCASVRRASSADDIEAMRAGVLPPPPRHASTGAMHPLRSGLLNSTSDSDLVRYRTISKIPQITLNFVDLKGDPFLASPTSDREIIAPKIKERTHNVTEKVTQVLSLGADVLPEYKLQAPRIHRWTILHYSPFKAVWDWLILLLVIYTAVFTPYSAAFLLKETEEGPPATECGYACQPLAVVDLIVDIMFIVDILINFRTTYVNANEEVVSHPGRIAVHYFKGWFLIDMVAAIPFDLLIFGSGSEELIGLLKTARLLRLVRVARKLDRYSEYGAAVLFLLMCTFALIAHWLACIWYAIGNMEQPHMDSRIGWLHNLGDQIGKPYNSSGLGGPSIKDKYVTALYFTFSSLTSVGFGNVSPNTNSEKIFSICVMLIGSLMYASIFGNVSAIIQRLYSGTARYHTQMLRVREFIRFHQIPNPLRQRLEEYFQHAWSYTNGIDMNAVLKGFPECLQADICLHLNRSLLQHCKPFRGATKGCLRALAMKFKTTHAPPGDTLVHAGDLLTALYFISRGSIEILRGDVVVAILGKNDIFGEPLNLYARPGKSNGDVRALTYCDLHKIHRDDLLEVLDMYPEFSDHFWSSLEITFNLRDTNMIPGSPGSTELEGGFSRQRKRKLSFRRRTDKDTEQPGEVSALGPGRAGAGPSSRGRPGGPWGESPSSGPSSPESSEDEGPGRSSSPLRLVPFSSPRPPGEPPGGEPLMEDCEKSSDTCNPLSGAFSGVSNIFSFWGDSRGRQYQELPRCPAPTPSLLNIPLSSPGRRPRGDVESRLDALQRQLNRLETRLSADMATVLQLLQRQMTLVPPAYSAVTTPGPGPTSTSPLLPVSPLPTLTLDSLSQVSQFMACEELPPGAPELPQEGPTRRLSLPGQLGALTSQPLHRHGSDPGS
The next assay concerns the target T6, Thromboxane A2 receptor (Homo sapiens, UniProt P21731).
T6 sequence (P21731 whole entry): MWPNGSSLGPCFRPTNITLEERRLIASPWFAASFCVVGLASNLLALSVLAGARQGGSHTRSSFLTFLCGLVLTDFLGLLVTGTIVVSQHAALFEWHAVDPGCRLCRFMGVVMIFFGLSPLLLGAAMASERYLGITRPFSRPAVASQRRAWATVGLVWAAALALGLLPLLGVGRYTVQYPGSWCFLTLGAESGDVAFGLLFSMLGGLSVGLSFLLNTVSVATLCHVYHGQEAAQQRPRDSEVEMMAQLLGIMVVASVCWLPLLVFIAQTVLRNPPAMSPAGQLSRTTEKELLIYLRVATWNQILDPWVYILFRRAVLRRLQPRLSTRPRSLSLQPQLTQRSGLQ

In assay [8] the target is Sodium-dependent noradrenaline transporter (Homo sapiens, UniProt P23975).
Chain of Sodium-dependent noradrenaline transporter (P23975 whole entry): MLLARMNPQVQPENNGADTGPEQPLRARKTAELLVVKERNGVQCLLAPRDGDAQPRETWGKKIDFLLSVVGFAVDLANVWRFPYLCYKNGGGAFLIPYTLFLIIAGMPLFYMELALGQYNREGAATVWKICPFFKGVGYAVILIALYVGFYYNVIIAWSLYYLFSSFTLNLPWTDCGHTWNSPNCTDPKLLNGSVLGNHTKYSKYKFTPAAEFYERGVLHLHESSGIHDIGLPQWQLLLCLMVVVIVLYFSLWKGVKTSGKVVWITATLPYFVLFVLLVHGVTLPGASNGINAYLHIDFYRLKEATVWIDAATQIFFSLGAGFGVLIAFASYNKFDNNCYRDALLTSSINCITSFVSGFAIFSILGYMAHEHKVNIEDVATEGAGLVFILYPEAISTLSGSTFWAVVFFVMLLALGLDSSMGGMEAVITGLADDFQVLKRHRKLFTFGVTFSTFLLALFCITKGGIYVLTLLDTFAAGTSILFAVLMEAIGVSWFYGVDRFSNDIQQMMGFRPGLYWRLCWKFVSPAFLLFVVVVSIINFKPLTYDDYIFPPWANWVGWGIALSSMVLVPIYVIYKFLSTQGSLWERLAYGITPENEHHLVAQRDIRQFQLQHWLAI
The next assay concerns the target D(3) dopamine receptor (Homo sapiens, UniProt P35462).
Assay [9] concerns the target T3, Cannabinoid receptor 1. Type of assay: functional, cell-based.

Some results are limits rather than exact numbers.

Broadly, the AC50 is the concentration at which the activity in the assay is half-maximal.
Also: assay procedure not described here.

Chain of D(3) dopamine receptor (P35462 whole entry): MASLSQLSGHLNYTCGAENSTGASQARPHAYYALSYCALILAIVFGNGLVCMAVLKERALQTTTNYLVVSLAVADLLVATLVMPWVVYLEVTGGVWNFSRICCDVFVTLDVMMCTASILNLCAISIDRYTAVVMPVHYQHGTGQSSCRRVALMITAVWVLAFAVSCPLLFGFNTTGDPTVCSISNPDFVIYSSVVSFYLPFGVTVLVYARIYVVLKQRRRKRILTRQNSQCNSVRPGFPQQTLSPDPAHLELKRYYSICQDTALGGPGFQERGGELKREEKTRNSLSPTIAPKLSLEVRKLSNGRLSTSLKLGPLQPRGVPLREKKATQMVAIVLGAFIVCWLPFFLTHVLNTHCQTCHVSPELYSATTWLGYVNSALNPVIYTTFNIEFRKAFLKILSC
Chain of Growth hormone secretagogue receptor type 1 (Q92847 whole entry): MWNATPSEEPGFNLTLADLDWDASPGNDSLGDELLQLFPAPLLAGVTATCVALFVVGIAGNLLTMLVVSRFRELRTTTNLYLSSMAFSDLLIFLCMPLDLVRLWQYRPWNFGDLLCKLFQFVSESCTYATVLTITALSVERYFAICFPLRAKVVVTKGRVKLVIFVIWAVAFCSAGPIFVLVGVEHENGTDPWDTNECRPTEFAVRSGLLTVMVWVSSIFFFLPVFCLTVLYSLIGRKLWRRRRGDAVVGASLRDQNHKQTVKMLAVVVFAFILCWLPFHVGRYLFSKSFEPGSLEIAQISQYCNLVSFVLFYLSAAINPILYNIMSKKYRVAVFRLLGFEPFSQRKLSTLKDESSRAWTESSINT
Chain of 5-hydroxytryptamine receptor 2B (P41595 whole entry): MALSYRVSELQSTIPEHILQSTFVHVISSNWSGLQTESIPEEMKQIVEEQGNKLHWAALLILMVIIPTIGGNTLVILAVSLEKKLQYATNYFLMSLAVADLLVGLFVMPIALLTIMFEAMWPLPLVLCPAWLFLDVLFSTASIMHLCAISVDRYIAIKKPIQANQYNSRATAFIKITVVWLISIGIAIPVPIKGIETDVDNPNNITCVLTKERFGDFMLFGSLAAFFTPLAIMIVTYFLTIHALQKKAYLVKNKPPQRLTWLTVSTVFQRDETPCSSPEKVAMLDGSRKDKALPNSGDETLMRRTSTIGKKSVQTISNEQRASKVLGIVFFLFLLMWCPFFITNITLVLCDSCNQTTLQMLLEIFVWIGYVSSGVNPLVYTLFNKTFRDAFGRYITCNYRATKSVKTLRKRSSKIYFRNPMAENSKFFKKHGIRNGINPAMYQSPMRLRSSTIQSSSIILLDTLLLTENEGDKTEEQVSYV
Chain of Adenosine receptor A2a (P29274 whole entry): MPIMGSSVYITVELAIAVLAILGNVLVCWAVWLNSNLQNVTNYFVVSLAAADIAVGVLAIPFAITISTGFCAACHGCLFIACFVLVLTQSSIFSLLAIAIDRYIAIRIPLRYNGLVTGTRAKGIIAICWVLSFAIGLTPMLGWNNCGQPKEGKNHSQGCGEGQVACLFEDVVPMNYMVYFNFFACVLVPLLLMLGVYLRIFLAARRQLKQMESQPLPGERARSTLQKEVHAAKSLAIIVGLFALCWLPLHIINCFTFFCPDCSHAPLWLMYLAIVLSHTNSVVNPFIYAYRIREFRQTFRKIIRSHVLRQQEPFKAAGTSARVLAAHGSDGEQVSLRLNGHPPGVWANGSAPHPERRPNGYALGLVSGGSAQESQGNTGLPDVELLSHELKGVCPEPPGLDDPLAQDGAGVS

On to `CC(C)=CCC/C(C)=C/C=C/C(C)=C/C=C/C(C)=C/C=C/C=C(C)/C=C/C=C(C)/C=C/C=C(\C)CCC=C(C)C` [LYCOPENE], for which the half-maximal activity concentration (AC50) (at Adenosine receptor A2a; in [1]; in [2]; on Cannabinoid receptor 1 [3]; at Endothelin-1 receptor; in [4]) was above 30 µM throughout. Moreover, the AC50 (in assay [5]; in [6]; in assay [7]; on Thromboxane A2 receptor; in assay [8]; on D(3) dopamine receptor) was above 30 µM throughout.

Take `COc1ccc2c3c1O[C@H]1[C@@H](O)C=C[C@H]4[C@@H](C2)N(C)CC[C@@]341` [CODEINE]: the concentration at half-maximal activity (AC50) at Adenosine receptor A2a is above 30 µM; in [1], above 10 µM; in [2] it was above 10 µM; on Cannabinoid receptor 1 [9] it was above 30 µM; at Cannabinoid receptor 1 [3] it was above 10 µM; at Endothelin-1 receptor it was above 30 µM. The concentration at half-maximal activity (AC50) in assay [4] was above 30 µM; in assay [5] it was above 10 µM; in assay [6], above 10 µM; in assay [7], above 30 µM; on Thromboxane A2 receptor, above 30 µM; in assay [8] it was above 30 µM. In addition, the AC50 on D(3) dopamine receptor is above 10 µM.

`CC=CC(=O)N(CC)c1ccccc1C`: the AC50 was above 10 µM on Adenosine receptor A2a; above 10 µM in assay [1]; above 30 µM at Cannabinoid receptor 1 [9]; above 10 µM at Cannabinoid receptor 1 [3]; above 10 µM in [4]; above 10 µM in [5]. Further, the AC50 is above 10 µM in assay [6]; above 30 µM in [7]; above 10 µM on Thromboxane A2 receptor; above 10 µM in [8]; above 30 µM at D(3) dopamine receptor.

Consider `CC(C(=O)O)c1ccc(N2Cc3ccccc3C2=O)cc1` (centres undefined) [INDOPROFEN], for which the concentration at half-maximal activity (AC50) (at Adenosine receptor A2a; in [1]; in [2]; on Cannabinoid receptor 1 [3]; at Endothelin-1 receptor; in assay [4]) was above 30 µM throughout. Moreover, the half-maximal activity concentration (AC50) (in [5]; in [6]; in assay [7]; at Thromboxane A2 receptor; in assay [8]; on D(3) dopamine receptor) was above 30 µM in each case.

On to `CN1CCC(=C2c3ccccc3CCc3sccc32)CC1` [PIZOTYLINE], for which the half-maximal activity concentration (AC50) on Adenosine receptor A2a was above 30 µM; in assay [1], 2.1 µM; in assay [2], 0.093 µM; on Cannabinoid receptor 1 [9], above 30 µM; at Cannabinoid receptor 1 [3], 1.66 µM; in [4] it was above 30 µM. Moreover, the AC50 is 3.56 µM in assay [5]; above 30 µM in assay [6]; 2.31 µM in [7]; above 30 µM at Thromboxane A2 receptor; 1.1 µM in assay [8]; 4.3 µM on D(3) dopamine receptor.

For `CN1C(=O)OC(C)(C)C1=O` [TRIMETHADIONE], the AC50 at Adenosine receptor A2a was above 10 µM; in assay [1] it was above 10 µM; on Cannabinoid receptor 1 [9], above 30 µM; at Cannabinoid receptor 1 [3], above 10 µM; in assay [4], above 10 µM; in assay [5], above 10 µM. Further, the AC50 was above 10 µM in assay [6]; above 30 µM in assay [7]; above 10 µM at Thromboxane A2 receptor; above 10 µM in [8]; above 30 µM on D(3) dopamine receptor.

As for `CC[C@@H]1C(=O)OC[C@@H]1Cc1cncn1C` [PILOCARPINE], the concentration at half-maximal activity (AC50) at Adenosine receptor A2a is above 30 µM; in assay [1], above 10 µM; at Cannabinoid receptor 1 [9] it was above 30 µM; on Cannabinoid receptor 1 [3] it was 16.1 µM; in assay [4], above 30 µM; in [5], above 30 µM. The AC50 in assay [6] was above 10 µM; in [7] it was above 30 µM; on Thromboxane A2 receptor it was above 30 µM; in [8], above 30 µM; on D(3) dopamine receptor, above 30 µM.

`CCCCc1ncc(/C=C(\Cc2cccs2)C(=O)O)n1Cc1ccc(C(=O)O)cc1` [EPROSARTAN]: the AC50 on Adenosine receptor A2a was above 10 µM; in [1], above 10 µM; in [2] it was above 10 µM; on Cannabinoid receptor 1 [9] it was above 30 µM; at Cannabinoid receptor 1 [3] it was above 10 µM; on Endothelin-1 receptor it was above 30 µM. Besides, the AC50 in [4] was above 10 µM; in [5], above 10 µM; in [6], above 10 µM; in assay [7] it was above 30 µM; on Thromboxane A2 receptor, above 10 µM; in [8] it was above 30 µM. Besides, the AC50 at D(3) dopamine receptor was above 10 µM.

Turning to `CC(C[N+](C)(C)C)OC(N)=O` (centres undefined) [BETHANECHOL], the AC50 at Adenosine receptor A2a is above 10 µM; in [1] it was above 10 µM; in assay [2], above 10 µM; on Cannabinoid receptor 1 [9] it was above 30 µM; at Cannabinoid receptor 1 [3], above 10 µM; in assay [4], above 10 µM. Also, the half-maximal activity concentration (AC50) was above 10 µM in assay [5]; above 10 µM in assay [6]; above 30 µM in assay [7]; above 10 µM on Thromboxane A2 receptor; above 10 µM in assay [8]; above 30 µM at D(3) dopamine receptor.

Take `CN1C(=O)C(O)N=C(c2ccccc2)c2cc(Cl)ccc21` (centres undefined) [TEMAZEPAM]: the concentration at half-maximal activity (AC50) on Adenosine receptor A2a was above 30 µM; in assay [1], above 10 µM; in [2] it was above 10 µM; at Cannabinoid receptor 1 [9], above 30 µM; on Cannabinoid receptor 1 [3], above 10 µM; at Endothelin-1 receptor, above 30 µM. The AC50 in assay [4] was above 30 µM; in assay [5], above 10 µM; in [6], above 10 µM; at Thromboxane A2 receptor, above 30 µM; in [8] it was above 10 µM; on D(3) dopamine receptor, above 10 µM.

Values taken from ChEMBL document CHEMBL5291721, “A preclinical secondary pharmacology resource illuminates target-adverse drug reaction associations of marketed drugs” (Nat Commun, 2023).
